Legend:
[1] = system: GTL16; test: GTL16 cell assay (EC50); format: cell-based; details: Homo sapiens, GTL 16
[2] = target: MET kinase (c-MET), kinase domain of human Met (Homo sapiens, UniProt P08581); test: MET luminescence-based enzyme assay (Kinase-Glo)
[3] = system: GTL16 tumors; test: GTL16 tumor xenograft model, tumor growth inhibition; format: in vivo, female athymic nude mice; details: for decrease of mean tumor volume compared to vehicle-treated group: last day of treatment
Method: GTL16 Tumor Xenograft Model
Female athymic nude mice (nu/nu from Harlan) were 6-8 weeks old with a body weight range of 18-22 g at the beginning of the study. The animals had free access to food and water throughout the study. The mice were housed on irradiated Alpha-dri® Bed-O-Cobs® Laboratory Animal Bedding in static micro isolator caging on a 12-hour light cycle at 70-74° F. and 40-60% humidity. All procedures involving animals were conducted in compliance with the NIH Guide for the Care and Use of Laboratory Animals and all protocols were approved by an Internal Animal Care and Use Committee (IACUC).
Xenografts were initiated from GTL-16 tumor cells cultured and maintained by an internal Cell Biology Department. Each test mouse received a subcutaneous injection of 4×10^6 cells suspended in 100 μL of serum free RPMI media. Tumors were randomized into treatment groups on Day 5 when the average tumor size reached approximately 150 mm^3. Each dose groups contained n=5 mice. Tumor volume was calculated using the formula: Tumor Volume=(w^2×l)/2, where w=width and l=length in mm of the tumor. Tumor weight may be estimated with the assumption that 1 mg is equivalent to 1 mm^3 of tumor volume.
Tumor Growth Inhibition (TGI) Analysis
TGI was calculated from the difference between the mean tumor volumes of vehicle-treated and drug-treated mice, expressed as a percentage.
The MTV is defined as the mean tumor volume (MTV) for the number of animals, n, remaining in the study on that day.

Sequence of MET kinase (c-MET), kinase domain of human Met (P08581 1078-1345 limits assumed): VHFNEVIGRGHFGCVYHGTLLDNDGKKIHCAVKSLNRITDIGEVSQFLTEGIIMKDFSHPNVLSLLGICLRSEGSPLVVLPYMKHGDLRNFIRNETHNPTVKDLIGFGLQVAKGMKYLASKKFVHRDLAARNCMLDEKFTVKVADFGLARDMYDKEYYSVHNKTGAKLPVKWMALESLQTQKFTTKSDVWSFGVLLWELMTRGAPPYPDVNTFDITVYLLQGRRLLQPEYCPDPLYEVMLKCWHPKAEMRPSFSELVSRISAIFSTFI

SMILES	IC50 [2] [nM]	EC50 ([1]; Table 2) [nM]	further results
Cc1ccc2nnc(Cc3ccc4ncc(-c5cnn(CCN6CCCC6)c5)cc4c3)n2n1 [compound 170]	< 100	< 100	–
CCN1CC(n2cc(-c3cnc4ccc(Cc5nnc6ccc(C)nn56)cc4c3)cn2)C1 [compound 171, 3-[1-(1-Ethyl-azetidin-3-yl)-1H-pyrazol-4-yl]-6-(6-methyl-[1,2,4]triazolo[4,3-b]pyridazin-3-ylmethyl)-quinoline]	< 100	< 100	–
Cc1ccc2nnc(Cc3ccc4ncc(-c5cnn(CC6CN(S(C)(=O)=O)C6)c5)cc4c3)n2n1 [compound 172, 3-[1-(1-Methanesulfonyl-azetidin-3-ylmethyl)-1H-pyrazol-4-yl]-6-(6-methyl-[1,2,4]triazolo[4,3-b]pyridazin-3-ylmethyl)-quinoline]	< 100	100 to 1000	–
CCN(CC)CCn1cc(-c2cnc3ccc(Cc4nnc5ccc(C)nn45)cc3c2)cn1 [compound 173]	< 100	< 100	–
Cn1cc(-c2cnc3cc(F)c(Cc4nnc5cccnn45)c(F)c3c2)cn1 [compound 174]	< 100	100 to 1000	–
CC(=O)N1CC(n2cc(-c3cnc4ccc(Cc5nnc6ccc(C)nn56)cc4c3)cn2)C1 [compound 175, 1-(3-{4-[6-(6-Methyl-[1,2,4]triazolo[4,3-b]pyridazin-3-ylmethyl)-quinolin-3-yl]-pyrazol-1-yl}-azetidin-1-yl)-ethanone]	< 100	100 to 1000	–
Cc1ccc2nnc(Cc3c[nH]c4ncc(-c5cnn(C)c5)cc34)n2n1 [compound 177, 6-Methyl-3-[5-(1-methyl-1H-pyrazol-4-yl)-1H-pyrrolo[2,3-b]pyridine-3-ylmethyl]-[1,2,4]triazolo[4,3-b]pyridazine]	< 100	100 to 1000	–
Cn1cc(-c2cnc3ccc(Cc4nnc5nccnn45)cc3c2)cn1 [compound 179, 3-(1-Methyl-1H-pyrazol-4-yl)-6-[1,2,4]triazolo[4,3-b][1,2,4]triazin-3-ylmethyl-quinoline]	< 100	< 100	–
CCN1CC(Cn2cc(-c3cnc4ccc(Cc5nnc6ccc(C)nn56)cc4c3)cn2)C1 [compound 180]	< 100	< 100	–
CC(=O)N1CC(Cn2cc(-c3cnc4ccc(Cc5nnc6ccc(C)nn56)cc4c3)cn2)C1 [compound 181]	< 100	100 to 1000	–
Cc1ccc2nnc(Cc3ccc4ncc(-c5cnn(C6CN(S(C)(=O)=O)C6)c5)cc4c3)n2n1 [compound 182]	< 100	100 to 1000	–

Second part, led by results:

IC50 [2] [nM]	EC50 ([1]; Table 2) [nM]	SMILES	further results
< 100	–	CNC(=O)c1ccc(-c2ccc3nnc(Cc4ccc5ncccc5c4)n3n2)cc1F [compound 30]	EC50 ([1]; Table 1): < 100 nM; decrease of mean tumor volume compared to vehicle-treated group ([3]; 3 mg/kg PO BID for 14 consecutive days, p<0.2743): 27%; decrease of mean tumor volume compared to vehicle-treated group ([3]; 50 mg/kg IP BID for 14 consecutive days, p<0.0036): 89%; inhibition of growth of GTL16 tumors grown subcutaneously ([3]; IP dose 50 mg/kg BID, 14 consecutive days): statistically significant inhibition
< 100	< 100	Cc1ccc2nnc(Cc3ccc4ncc(-c5cnn(C)c5)cc4c3)n2n1 [compound 124, 3-(1-Methyl-1H-pyrazol-4-yl)-6-(6-methyl-[1,2,4]triazolo[4,3-b]pyridazin-3-ylmethyl)-quinoline]	decrease of mean tumor volume compared to vehicle-treated group ([3]; 1 mg/kg PO Q12H for 14.5 consecutive days, p=0.0079): 32%; decrease of mean tumor volume compared to vehicle-treated group ([3]; 3 mg/kg PO Q12H for 14.5 consecutive days, p<0.0001): 55%; decrease of mean tumor volume compared to vehicle-treated group ([3]; 10 mg/kg PO Q12H for 14.5 consecutive days, p<0.0001): 72%; decrease of mean tumor volume compared to vehicle-treated group ([3]; 30 mg/kg PO Q12H for 14.5 consecutive days, p<0.0001): 79%
< 100	< 100	CN(C)c1ccc2nnc(Cc3ccc4ncc(-c5cnn(C)c5)cc4c3)n2n1 [compound 159, Dimethyl-{3-[3-(1-methyl-1H-pyrazol-4-yl)-quinolin-6-ylmethyl]-[1,2,4]triazolo[4,3-b]pyridazin-6-yl}-amine]	–
< 100	< 100	CNc1ccc2nnc(Cc3ccc4ncc(-c5cnn(C)c5)cc4c3)n2n1 [compound 160]	–
< 100	< 100	Cn1cc(-c2cnc3ccc(Cc4nnc5ccc(N)nn45)cc3c2)cn1 [compound 161]	–
< 100	< 100	CCn1cc(-c2cnc3ccc(Cc4nnc5ccc(C)nn45)cc3c2)cn1 [compound 162]	–
< 100	< 100	CCCn1cc(-c2cnc3ccc(Cc4nnc5ccc(C)nn45)cc3c2)cn1 [compound 163]	–
< 100	1000 to 10000	Cc1ccc2nnc(Cc3ccc4ncc(-c5cnn(C6(C(=O)O)CCC6)c5)cc4c3)n2n1 [compound 164]	–
< 100	< 100	CCc1ccc2nnc(Cc3cc4cc(-c5cnn(C)c5)cnc4cc3F)n2n1 [compound 165]	–
< 100	< 100	CCc1ccc2nnc(Cc3c(F)cc4ncc(-c5cnn(C)c5)cc4c3F)n2n1 [compound 166, 6-(6-Ethyl-[1,2,4]triazolo[4,3-b]pyridazin-3-ylmethyl)-5,7-difluoro-3-(1-methyl-1H-pyrazol-4-yl)-quinoline]	–
< 100	10000 to 50000	Cn1cc(-c2cnc3cc(F)c(Cc4nnc5cccnn45)cc3c2)cn1 [compound 167]	–
< 100	< 100	Cc1ccc2nnc(Cc3ccc4ncc(-c5cnn(CCN(C)C)c5)cc4c3)n2n1 [compound 168]	–
< 100	< 100	Cc1ccc2nnc(Cc3ccc4ncc(-c5cnn(CC6CN(C(=O)OC(C)(C)C)C6)c5)cc4c3)n2n1 [compound 169]	–
